{"source": "patent US6432383B1", "about": "“Method for administering insulin” (Generex Pharmaceuticals Incorporated, priority 2000, dated 2002)", "test_system": "healthy non-diabetic human volunteers", "test": "Blood glucose in fasted healthy non-diabetic volunteers, injected vs oral insulin (Example 1)", "type": "in vivo", "parameters": "unit not given here", "conditions": "sub-cutaneous injection 10 units, avg of 5 fasted healthy volunteers", "description": "In one set of tests, five healthy non-diabetic human volunteers were tested with insulin, by injection. In another set of tests the volunteers were tested with insulin, taken orally. The volunteers fasted from midnight prior to the test, with no food being taken during the 4 hour study.\nOn the first day, the volunteers received 10 units insulin by injection (regular fast acting insulin, available from Eli Lilly). On the second day, the volunteers received 100 units (1 mL volume per drop, approximately 20 drops) of the above-prepared oral insulin (10 times the injection dose). In both tests, blood glucose levels were monitored every 15 minutes by Bayer's Glucometer Elite.", "data": [{"substance": "insulin [regular fast acting insulin]", "values": [{"measurement": "Blood glucose levels", "setting": "0 min", "value": 5.8}, {"measurement": "Blood glucose levels", "setting": "15 min", "value": 5.8}, {"measurement": "Blood glucose levels", "setting": "30 min", "value": 5.4}, {"measurement": "Blood glucose levels", "setting": "60 min", "value": 5.0}, {"measurement": "Blood glucose levels", "setting": "75 min", "value": 4.6}, {"measurement": "Blood glucose levels", "setting": "90 min", "value": 4.3}, {"measurement": "Blood glucose levels", "setting": "120 min", "value": 3.8}, {"measurement": "Blood glucose levels", "setting": "150 min", "value": 3.6}, {"measurement": "Blood glucose levels", "setting": "180 min", "value": 3.4}, {"measurement": "Blood glucose levels", "setting": "210 min", "value": 4.2}, {"measurement": "Blood glucose levels", "setting": "240 min", "value": 4.5}]}]}
